According to PubChem BioAssay AID1963852 (Molecular Pharmacology Branch, DTP, NCI, 2024):

Tested on: 282377-053-R-J1-PDC complex spheroid viability
Experiment: Anticancer human tumor 282377-053-R-J1-PDC patient-derived colon adenocarcinoma cell line growth inhibition [POLQ]
Conditions: for IC50: curve of first compound; for viability, T/C: stronger effect = lower value
How it was run: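 Growth inhibition in 3D: complex spheroids (tumor PDC, HUVEC, MSC) treated with POLQ inhibitor combinations; where Cmax unknown, highest tested concentration 10 microM, except SN-38 at 1 microM.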

[1] = second compound 0.0316 µM, first compound 0.0316 µM
[2] = second compound 0.0316 µM, first compound 0.1 µM
[3] = second compound 0.0316 µM, first compound 0.316 µM
[4] = second compound 0.0316 µM, first compound 1 µM
[5] = second compound 0.0316 µM, first compound 3.16 µM
[6] = second compound 0.0316 µM, first compound 10 µM
[7] = second compound 0.1 µM, first compound 0.0316 µM
[8] = second compound 0.1 µM, first compound 0.1 µM
[9] = second compound 0.1 µM, first compound 0.316 µM
[10] = second compound 0.1 µM, first compound 1 µM
[11] = second compound 0.1 µM, first compound 3.16 µM
[12] = second compound 0.1 µM, first compound 10 µM
[13] = second compound 0.316 µM, first compound 0.0316 µM
[14] = second compound 0.316 µM, first compound 0.1 µM
[15] = second compound 0.316 µM, first compound 0.316 µM
[16] = second compound 0.316 µM, first compound 1 µM
[17] = second compound 0.316 µM, first compound 3.16 µM
[18] = second compound 0.316 µM, first compound 10 µM
[19] = second compound 1 µM, first compound 0.0316 µM
[20] = second compound 1 µM, first compound 0.1 µM
[21] = second compound 1 µM, first compound 0.316 µM
[22] = second compound 1 µM, first compound 1 µM
[23] = second compound 1 µM, first compound 3.16 µM
[24] = second compound 1 µM, first compound 10 µM
[25] = second compound 3.16 µM, first compound 0.0316 µM
[26] = second compound 3.16 µM, first compound 0.1 µM
[27] = second compound 3.16 µM, first compound 0.316 µM
[28] = second compound 3.16 µM, first compound 1 µM
[29] = second compound 3.16 µM, first compound 3.16 µM
[30] = second compound 3.16 µM, first compound 10 µM
[31] = second compound 10 µM, first compound 0.0316 µM
[32] = second compound 10 µM, first compound 0.1 µM
[33] = second compound 10 µM, first compound 0.316 µM
[34] = second compound 10 µM, first compound 1 µM
[35] = second compound 10 µM, first compound 3.16 µM
[36] = second compound 10 µM, first compound 10 µM
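Further: spheroids exposed to compounds for seven days.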
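Wherever viability, T/C is given: 100% = DMSO vehicle control viability.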

In the case of `CC1COCCN1c1cc(-c2ccnn2C)c2ccnc(-c3ccn[nH]3)c2n1` (stereo not drawn) + COC1C(OC(N)=O)C(O)C(Oc2ccc3c(O)c(NC(=O)c4ccc(O)c(CC=C(C)C)c4)c(=O)oc3c2C)OC1(C)C, the IC50 (second compound 0.0316 µM) is reported as 0.377 µM, the IC50 (second compound 0.1 µM) is reported as 0.398 µM and the IC50 (second compound 0.316 µM) is reported as 0.589 µM. The IC50 (second compound 1 µM) was 0.677 µM, the IC50 (second compound 3.16 µM) was 0.45 µM and the IC50 (second compound 10 µM) was 0.642 µM. It also gave a viability, T/C [1] of 107%, a viability, T/C [2] of 99.6% and a viability, T/C [3] of 52.5%. It also gave a viability, T/C [4] of 34.2%, a viability, T/C [5] of 26.9% and a viability, T/C [6] of 25.4%. The viability, T/C [7] was 95.2%, the viability, T/C [8] was 80.5% and the viability, T/C [9] was 52.7%. It also gave a viability, T/C [10] of 36.5%, a viability, T/C [11] of 33.9% and a viability, T/C [12] of 27.6%. The viability, T/C [13] was 95.6%, the viability, T/C [14] was 87.5% and the viability, T/C [15] was 59.9%. For the same compound, the viability, T/C [16] was 41.1%, the viability, T/C [17] was 25.9% and the viability, T/C [18] was 20.4%. The viability, T/C [19] was 89.1%, the viability, T/C [20] was 85.3% and the viability, T/C [21] was 68.4%. It also gave a viability, T/C [22] of 40%, a viability, T/C [23] of 27.4% and a viability, T/C [24] of 21.4%. It also gave a viability, T/C [25] of 102%, a viability, T/C [26] of 94.8% and a viability, T/C [27] of 57.3%. For the same compound, the viability, T/C [28] was 32.5%, the viability, T/C [29] was 26.5% and the viability, T/C [30] was 22.6%. It also gave a viability, T/C [31] of 121%, a viability, T/C [32] of 80.8% and a viability, T/C [33] of 66.7%. The viability, T/C [34] was 39.7%, the viability, T/C [35] was 33.3% and the viability, T/C [36] was 21.8%.

In the case of `C=CC(=O)N1CCN(c2nc(=O)n(-c3c(C)ccnc3C(C)C)c3nc(-c4c(O)cccc4F)c(F)cc23)C(C)C1` (stereo not drawn) + COC1C(OC(N)=O)C(O)C(Oc2ccc3c(O)c(NC(=O)c4ccc(O)c(CC=C(C)C)c4)c(=O)oc3c2C)OC1(C)C, the IC50 (second compound 0.0316 µM) is reported as > 10 µM, the IC50 (second compound 0.1 µM) is reported as > 10 µM and the IC50 (second compound 0.316 µM) is reported as > 10 µM. For the same compound, the IC50 (second compound 1 µM) was > 10 µM, the IC50 (second compound 3.16 µM) was > 10 µM and the IC50 (second compound 10 µM) was > 10 µM. It also gave a viability, T/C [1] of 114%, a viability, T/C [2] of 103% and a viability, T/C [3] of 102%. The viability, T/C [4] was 94.9%, the viability, T/C [5] was 111% and the viability, T/C [6] was 94.4%. It also gave a viability, T/C [7] of 107%, a viability, T/C [8] of 116% and a viability, T/C [9] of 96.5%. The viability, T/C [10] was 115%, the viability, T/C [11] was 108% and the viability, T/C [12] was 102%. The viability, T/C [13] was 105%, the viability, T/C [14] was 124% and the viability, T/C [15] was 113%. It also gave a viability, T/C [16] of 100%, a viability, T/C [17] of 113% and a viability, T/C [18] of 77%. The viability, T/C [19] was 94.9%, the viability, T/C [20] was 114% and the viability, T/C [21] was 114%. It also gave a viability, T/C [22] of 98.1%, a viability, T/C [23] of 89.6% and a viability, T/C [24] of 85.4%. It also gave a viability, T/C [25] of 115%, a viability, T/C [26] of 113% and a viability, T/C [27] of 102%. For the same compound, the viability, T/C [28] was 90.1%, the viability, T/C [29] was 95.2% and the viability, T/C [30] was 90.5%. For the same compound, the viability, T/C [31] was 106%, the viability, T/C [32] was 109% and the viability, T/C [33] was 105%. The viability, T/C [34] was 114%, the viability, T/C [35] was 112% and the viability, T/C [36] was 111%.

With `Cn1ncnc1[C@H]1c2n[nH]c(=O)c3cc(F)cc(c23)N[C@@H]1c1ccc(F)cc1` + Cc1cccc(N(C)C(=O)C2C(O)CCN2c2nc(C)cc(C(F)(F)F)c2C#N)c1 the IC50 (second compound 0.0316 µM) was > 0.1 µM, the IC50 (second compound 0.1 µM) was > 0.1 µM and the IC50 (second compound 0.316 µM) was > 0.1 µM. For the same compound, the IC50 (second compound 1 µM) was > 0.1 µM, the IC50 (second compound 3.16 µM) was > 0.1 µM and the IC50 (second compound 10 µM) was > 0.1 µM. The viability, T/C (second compound 0.0316 µM, first compound 0.000316 µM) was 111%, the viability, T/C (second compound 0.0316 µM, first compound 0.001 µM) was 86.9% and the viability, T/C (second compound 0.0316 µM, first compound 0.00316 µM) was 105%. For the same compound, the viability, T/C (second compound 0.0316 µM, first compound 0.01 µM) was 128%, the viability, T/C [1] was 98.3% and the viability, T/C [2] was 89.3%. The viability, T/C (second compound 0.1 µM, first compound 0.000316 µM) was 125%, the viability, T/C (second compound 0.1 µM, first compound 0.001 µM) was 125% and the viability, T/C (second compound 0.1 µM, first compound 0.00316 µM) was 102%. The viability, T/C (second compound 0.1 µM, first compound 0.01 µM) was 128%, the viability, T/C [7] was 91.8% and the viability, T/C [8] was 100%. It also gave a viability, T/C (second compound 0.316 µM, first compound 0.000316 µM) of 95.9%, a viability, T/C (second compound 0.316 µM, first compound 0.001 µM) of 114% and a viability, T/C (second compound 0.316 µM, first compound 0.00316 µM) of 98.2%. The viability, T/C (second compound 0.316 µM, first compound 0.01 µM) was 93.5%, the viability, T/C [13] was 111% and the viability, T/C [14] was 95.5%. The viability, T/C (second compound 1 µM, first compound 0.000316 µM) was 116%, the viability, T/C (second compound 1 µM, first compound 0.001 µM) was 110% and the viability, T/C (second compound 1 µM, first compound 0.00316 µM) was 89%. It also gave a viability, T/C (second compound 1 µM, first compound 0.01 µM) of 102%, a viability, T/C [19] of 119% and a viability, T/C [20] of 91.6%. For the same compound, the viability, T/C (second compound 3.16 µM, first compound 0.000316 µM) was 106%, the viability, T/C (second compound 3.16 µM, first compound 0.001 µM) was 130% and the viability, T/C (second compound 3.16 µM, first compound 0.00316 µM) was 82.9%. It also gave a viability, T/C (second compound 3.16 µM, first compound 0.01 µM) of 115%, a viability, T/C [25] of 88.5% and a viability, T/C [26] of 112%. The viability, T/C (second compound 10 µM, first compound 0.000316 µM) was 105%, the viability, T/C (second compound 10 µM, first compound 0.001 µM) was 102% and the viability, T/C (second compound 10 µM, first compound 0.00316 µM) was 105%. For the same compound, the viability, T/C (second compound 10 µM, first compound 0.01 µM) was 82.7%, the viability, T/C [31] was 81.5% and the viability, T/C [32] was 100%.

For `CC1COCCN1c1cc(C2(S(C)(=N)=O)CC2)nc(-c2ccnc3[nH]ccc23)n1` (stereo not drawn) + Cc1cccc(N(C)C(=O)C2C(O)CCN2c2nc(C)cc(C(F)(F)F)c2C#N)c1, the IC50 (second compound 0.0316 µM) was 7.38 µM, the IC50 (second compound 0.1 µM) was > 10 µM and the IC50 (second compound 0.316 µM) was > 10 µM. For the same compound, the IC50 (second compound 1 µM) was > 10 µM, the IC50 (second compound 3.16 µM) was > 10 µM and the IC50 (second compound 10 µM) was 5.13 µM. It also gave a viability, T/C [1] of 113%, a viability, T/C [2] of 81.7% and a viability, T/C [3] of 108%. It also gave a viability, T/C [4] of 77.6%, a viability, T/C [5] of 66% and a viability, T/C [6] of 44%. The viability, T/C [7] was 98.3%, the viability, T/C [8] was 103% and the viability, T/C [9] was 77.5%. The viability, T/C [10] was 84.4%, the viability, T/C [11] was 71.8% and the viability, T/C [12] was 54.3%. It also gave a viability, T/C [13] of 91.3%, a viability, T/C [14] of 101% and a viability, T/C [15] of 80.8%. It also gave a viability, T/C [16] of 89.5%, a viability, T/C [17] of 98.2% and a viability, T/C [18] of 50.2%. It also gave a viability, T/C [19] of 107%, a viability, T/C [20] of 111% and a viability, T/C [21] of 83.6%. The viability, T/C [22] was 86.1%, the viability, T/C [23] was 69.5% and the viability, T/C [24] was 52.5%. The viability, T/C [25] was 93%, the viability, T/C [26] was 84.4% and the viability, T/C [27] was 123%. The viability, T/C [28] was 114%, the viability, T/C [29] was 64.9% and the viability, T/C [30] was 49.7%. For the same compound, the viability, T/C [31] was 90.6%, the viability, T/C [32] was 73.6% and the viability, T/C [33] was 89.1%. It also gave a viability, T/C [34] of 80.2%, a viability, T/C [35] of 55.4% and a viability, T/C [36] of 42.7%.
